In patent US20190375708A1 (VenatoRx Pharmaceuticals, Inc., priority 2018, published 2019):

How the values were obtained:
[1] = tested on: HBV replication in HepAD38 cells; experiment: Anti-HBV replication assay in HepAD38 cells (QPCR of extracellular HBV DNA); format: cell-based, HBV (genotype D, serotype ayw); conditions: Hepatitis B virus, 168 h, 7 days incubation, extracellular HBV DNA by QPCR, read-out: Anti-HBV EC50
How it was run: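 Stably transfected HepG2-derived HepAD38 cells express HBV (genotype D, ayw) once tetracycline is withdrawn. Compounds act for 7 days, after which secreted HBV DNA is quantified by QPCR relative to DMSO-treated wells.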

[2] = In vitro cytotoxicity assay (MTT cell viability) in HepG2 cells; format: cell-based, human; conditions: human
How it was run: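 Read-out: MTT formazan absorbance at 492 nm, expressed as % of vehicle signal; CC50 by 4-parameter non-linear regression. Parental HepG2, 20,000 cells/well, treated 7 days with compound from 30 μM down to 1.0 nM.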

Row | SMILES | EC50 [1] [µM] | CC50 at 7 days [2] [µM]
1 | Cc1c(C(=O)Nc2cccc(C(F)F)c2)c(C)n(C)c1C(=O)C(=O)N[C@@H]1CC[C@@H](O)C1 [Example 721, N-(3-(difluoromethyl)phenyl)-5-(2-(((1R,3R)-3-hydroxycyclopentyl)amino)-2-oxoacetyl)-1,2,4-trimethyl-1H-pyrrole-3-carboxamide] | < 0.05 | > 30
2 | Cc1cc(NC(=O)c2c(C)c(C(=O)C(=O)N[C@H]3CC[C@](O)(C(F)(F)F)CC3)n(C)c2C)ccc1F [Example 221, N-(4-fluoro-3-methylphenyl)-5-(2-(((1s,4s)-4-hydroxy-4-(trifluoromethyl)cyclohexyl)amino)-2-oxoacetyl)-1,2,4-trimethyl-1H-pyrrole-3-carboxamide] | < 0.05 | 5 to 30
3 | Cc1cc(NC(=O)c2c(C)c(C(=O)C(=O)NC3(C)CC[C@@H](O)[C@@H](O)C3)n(C)c2C)ccc1F (stereo partly drawn) [Example 702, 5-(2-(((3S,4R)-3,4-dihydroxy-1-methylcyclohexyl)amino)-2-oxoacetyl)-N-(4-fluoro-3-methylphenyl)-1,2,4-trimethyl-1H-pyrrole-3-carboxamide] | < 0.05 | > 30
4 | Cc1cc(NC(=O)c2c(C)c(C(=O)C(=O)NC3(C)CCN(c4cccnn4)CC3)n(C)c2C)ccc1F [Example 728, N-(4-fluoro-3-methylphenyl)-1,2,4-trimethyl-5-(2-((4-methyl-1-(pyridazin-3-yl)piperidin-4-yl)amino)-2-oxoacetyl)-1H-pyrrole-3-carboxamide] | < 0.05 | > 30
5 | Cc1cc(NC(=O)c2c(C)c(C(=O)C(=O)NC3CC(=O)NC(=O)C3)n(C)c2C)ccc1F [Example 610, 5-(2-((2,6-dioxopiperidin-4-yl)amino)-2-oxoacetyl)-N-(4-fluoro-3-methylphenyl)-1,2,4-trimethyl-1H-pyrrole-3-carboxamide] | < 0.05 | > 30
6 | Cc1cc(NC(=O)c2c(C)c(C(=O)C(=O)N[C@@H]3CCCNC3=O)n(C)c2C)ccc1F [Example 673, (R)-N-(4-fluoro-3-methylphenyl)-1,2,4-trimethyl-5-(2-oxo-2-((2-oxopiperidin-3-yl)amino)acetyl)-1H-pyrrole-3-carboxamide] | < 0.05 | > 30
7 | Cc1cc(NC(=O)c2cc(C(=O)C(=O)NC(C)(C)C)n3c2COCC3)ccc1F [Example 583, 6-(2-(tert-butylamino)-2-oxoacetyl)-N-(4-fluoro-3-methylphenyl)-3,4-dihydro-1H-pyrrolo[2,1-c][1,4]oxazine-8-carboxamide] | < 0.05 | > 30
8 | Cc1cc(NC(=O)c2c(C)c(C(=O)C(=O)NC3CCN(c4ccncc4)CC3)n(C)c2C)ccc1F [Example 662, N-(4-fluoro-3-methylphenyl)-1,2,4-trimethyl-5-(2-oxo-2-((1-(pyridin-4-yl)piperidin-4-yl)amino)acetyl)-1H-pyrrole-3-carboxamide] | < 0.05 | > 30
9 | CC(=O)N1CCC[C@H](NC(=O)C(=O)c2c(C)c(C(=O)Nc3ccc(F)c(C)c3)c(C)n2C)C1 [Example 641, (S)-5-(2-((1-acetylpiperidin-3-yl)amino)-2-oxoacetyl)-N-(4-fluoro-3-methylphenyl)-1,2,4-trimethyl-1H-pyrrole-3-carboxamide] | < 0.05 | > 30
10 | Cc1cc(NC(=O)c2c(C)c(C(=O)C(=O)NC(C)(C)C(F)(F)F)n(CCF)c2C)ccc1F [Example 227, N-(4-fluoro-3-methylphenyl)-1-(2-fluoroethyl)-2,4-dimethyl-5-(2-oxo-2-((1,1,1-trifluoro-2-methylpropan-2-yl)amino)acetyl)-1H-pyrrole-3-carboxamide] | < 0.05 | > 30
11 | CC(C)(O)CNC(=O)C(=O)c1c(Cl)c(C(=O)Nc2ccc(F)c(Cl)c2)c2n1CCC2 [Example 557, 6-chloro-N-(3-chloro-4-fluorophenyl)-5-(2-((2-hydroxy-2-methylpropyl)amino)-2-oxoacetyl)-2,3-dihydro-1H-pyrrolizine-7-carboxamide] | < 0.05 | 5 to 30
12 | Cc1cc(NC(=O)c2cc(C(=O)C(=O)NC3(CO)CC(F)(F)C3)n3c2CCCC3)ccc1F [Example 432, 3-(2-((3,3-difluoro-1-(hydroxymethyl)cyclobutyl)amino)-2-oxoacetyl)-N-(4-fluoro-3-methylphenyl)-5,6,7,8-tetrahydroindolizine-1-carboxamide] | 0.05 to 0.499 | > 30
13 | Cc1cc(NC(=O)c2c(Cl)c(C(=O)C(=O)NC(C)(C)C)n3c2CCC3)ccc1F [Example 539, 5-(2-(tert-butylamino)-2-oxoacetyl)-6-chloro-N-(4-fluoro-3-methylphenyl)-2,3-dihydro-1H-pyrrolizine-7-carboxamide] | < 0.05 | 5 to 30
14 | CO[C@H]1CC[C@@H](NC(=O)C(=O)c2c(C)c(C(=O)Nc3ccnc(Cl)c3)c(C)n2C)CC1 [Example 345, N-(2-chloropyridin-4-yl)-5-(2-(((1s,4s)-4-methoxycyclohexyl)amino)-2-oxoacetyl)-1,2,4-trimethyl-1H-pyrrole-3-carboxamide] | < 0.05 | > 30
15 | Cc1cc(NC(=O)c2c(C)c(C(=O)C(=O)Nc3ccc4c(c3)COB4O)n(C)c2C)ccc1F [Example 678, N-(4-fluoro-3-methylphenyl)-5-(2-((1-hydroxy-1,3-dihydrobenzo[c][1,2]oxaborol-5-yl)amino)-2-oxoacetyl)-1,2,4-trimethyl-1H-pyrrole-3-carboxamide] | < 0.05 | 5 to 30
16 | Cc1nc(C(C)(NC(=O)C(=O)c2c(C)c(C(=O)Nc3ccc(F)c(C)c3)c(C)n2C)C2CC2)no1 (stereo not drawn) [Example 716, 5-(2-((1-cyclopropyl-1-(5-methyl-1,2,4-oxadiazol-3-yl)ethyl)amino)-2-oxoacetyl)-N-(4-fluoro-3-methylphenyl)-1,2,4-trimethyl-1H-pyrrole-3-carboxamide] | < 0.05 | > 30
17 | Cc1nnc(C2(NC(=O)C(=O)c3c(C)c(C(=O)Nc4ccc(F)c(C)c4)c(C)n3CCF)CC2)o1 [Example 201, N-(4-fluoro-3-methylphenyl)-1-(2-fluoroethyl)-2,4-dimethyl-5-(2-((1-(5-methyl-1,3,4-oxadiazol-2-yl)cyclopropyl)amino)-2-oxoacetyl)-1H-pyrrole-3-carboxamide] | 0.05 to 0.499 | > 30
18 | Cc1cc(NC(=O)c2c(Cl)c(C(=O)C(=O)N[C@@H]3CCC[C@@H]3O)n(C)c2C)ccc1F [Example 367, 4-chloro-N-(4-fluoro-3-methylphenyl)-5-(2-(((1R,2S)-2-hydroxycyclopentyl)aminO)-2-oxoacetyl)-1,2-dimethyl-1H-pyrrole-3-carboxamide] | < 0.05 | 5 to 30
19 | Cc1c(C(=O)Nc2nccs2)c2n(c1C(=O)C(=O)NC1(CO)CCC1)CCCC2 [Example 751] | 0.05 to 0.499 | > 30
20 | Cc1cc(NC(=O)c2c(C)c(C(=O)C(=O)NC3(C(=O)NC(C)C)CCOCC3)n(C)c2C)ccc1F [Example 303, N-(4-fluoro-3-methylphenyl)-5-(2-((4-(isopropylcarbamoyl)tetrahydro-2H-pyran-4-yl)amino)-2-oxoacetyl)-1,2,4-trimethyl-1H-pyrrole-3-carboxamide] | < 0.05 | > 30
21 | COc1c(C(=O)Nc2ccc(F)c(F)c2)c(C)n(C)c1C(=O)C(=O)NC(C)(C)C [Example 380] | < 0.05 | > 30
